Measured values: ChEMBL document CHEMBL1201862, “PubChem BioAssay data set” (2004)
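48-hour exposure; five concentrations; linearly interpolated endpoints. GI50: concentration for 50% inhibition of growth.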 Activity calls are given as the source filed them. Rule as the data show it: active = GI50 up to about 1.1 µM and inactive = higher.

Columns and labels:
Assay in all cases: inhibition of tumour cell growth, NCI panel, 48 h
[1] = system: U-251
[2] = system: SK-MEL-5
[3] = system: M14
[4] = system: HCT-116
[5] = system: DU-145
[6] = system: TK-10
[7] = system: OVCAR-5
[8] = system: ACHN
[9] = system: SK-MEL-28
[10] = system: HT-29
[11] = system: SK-MEL-2
[12] = system: HOP-62
[13] = system: UO-31
[14] = system: PC-3
[15] = system: MCF7
[16] = system: HL-60
[17] = system: Hs-578T
[18] = system: NCI-H522
[19] = system: SN12C

SMILES | GI50 [1] | GI50 [2] | GI50 [3] | GI50 [4] | GI50 [5] | GI50 [6] | GI50 [7] | GI50 [8] | GI50 [9] | GI50 [10] | GI50 [11] | GI50 [12] | GI50 [13] | GI50 [14] | GI50 [15] | GI50 [16] | GI50 [17] | GI50 [18] | GI50 [19]
C=C1c2cc3c(cc2CC12Cc1cc4c(cc1C2=O)CCC4)CCC3 (stereo not given) | > 100 µM (inactive) | > 100 µM (inactive) | > 100 µM (inactive) | > 100 µM (inactive) | > 100 µM (inactive) | > 100 µM (inactive) | > 100 µM (inactive) | > 100 µM (inactive) | > 100 µM (inactive) | > 100 µM (inactive) | > 100 µM (inactive) | > 100 µM (inactive) | > 100 µM (inactive) | > 100 µM (inactive) | > 100 µM (inactive) | > 100 µM (inactive) | > 100 µM (inactive) | > 100 µM (inactive) | 
CCN(CC)Cc1cc(Nc2ccnc3ccc4c(nnn4C)c23)ccc1O |  | 12.7 µM (inactive) | 15.3 µM (inactive) | 4.93 µM (inactive) | 13.3 µM (inactive) | 21.5 µM (inactive) | 11.1 µM (inactive) | 2.81 µM (inactive) | 3.98 µM (inactive) | 5.56 µM (inactive) | 16.1 µM (inactive) | 4.92 µM (inactive) | 6.62 µM (inactive) | 6.82 µM (inactive) | 4.03 µM (inactive) | 9.89 µM (inactive) | 15.5 µM (inactive) | 16.2 µM (inactive) | 6.1 µM (inactive)
O=C(Oc1c(I)ccccc1=O)c1ccc([N+](=O)[O-])cc1 | 16.8 µM (inactive) | 0.51 µM (active) | 26.2 µM (inactive) | 26.1 µM (inactive) | 11.7 µM (inactive) | 30.8 µM (inactive) | 35.5 µM (inactive) | 24.8 µM (inactive) | 8.09 µM (inactive) | 12.3 µM (inactive) | 20.5 µM (inactive) | 33.3 µM (inactive) | 17.3 µM (inactive) | 27.4 µM (inactive) | 17.2 µM (inactive) | 18.2 µM (inactive) | 24.8 µM (inactive) | 17.7 µM (inactive) | 20.4 µM (inactive)
Cc1cc(Cl)cc2c1NC(=O)/C2=N\Nc1ccccc1[N+](=O)[O-] | > 100 µM (inactive) | > 100 µM (inactive) | > 100 µM (inactive) | > 100 µM (inactive) | 78.2 µM (inactive) | > 100 µM (inactive) | > 100 µM (inactive) | > 100 µM (inactive) | > 100 µM (inactive) |  | > 100 µM (inactive) | 50.5 µM (inactive) | > 100 µM (inactive) | 38.8 µM (inactive) | > 100 µM (inactive) | > 100 µM (inactive) | 35.3 µM (inactive) | > 100 µM (inactive) | > 100 µM (inactive)
CN(C(=O)C12C3(C(=O)O)C4C5(C(=O)O)C3C1(C(=O)O)C5C42C(=O)O)C(C)(C)C (stereo not given) | > 100 µM (inactive) | > 100 µM (inactive) | > 100 µM (inactive) | > 100 µM (inactive) | > 100 µM (inactive) | > 100 µM (inactive) | > 100 µM (inactive) | > 100 µM (inactive) | > 100 µM (inactive) | > 100 µM (inactive) | > 100 µM (inactive) | > 100 µM (inactive) | > 100 µM (inactive) | > 100 µM (inactive) | > 100 µM (inactive) | > 100 µM (inactive) | > 100 µM (inactive) | > 100 µM (inactive) | > 100 µM (inactive)
COc1ccc(Nc2nc3cc(C(F)(F)F)ccc3n3cccc23)cc1OC | 15.2 µM (inactive) | 14.5 µM (inactive) | 14.3 µM (inactive) | 12.1 µM (inactive) | 20.3 µM (inactive) | 12.6 µM (inactive) | 18.6 µM (inactive) | 17.7 µM (inactive) | 28.2 µM (inactive) | 8.99 µM (inactive) | 15.5 µM (inactive) | 22.3 µM (inactive) | 22.8 µM (inactive) | 10.6 µM (inactive) | 16.6 µM (inactive) | 19.8 µM (inactive) | 29.2 µM (inactive) | 16 µM (inactive) | 
